In patent US8143419B2, “Trisubstituted 1,2,4-triazoles” (Janssen Pharmaceutica N. V., priority 2006, dated 2012):

How the values were obtained:
hα7-wt nAChR = biological target: T1, hα7-wt nAChR (Homo sapiens, UniProt P36544); experiment: Ca2+ flux imaging (FDSS) (Protocol B), PAM activity with choline as agonist; assay type: cell-based; settings: for EC50: "<5" = no top plateau at maximal concentration; for Emax: read-out: % efficacy
T1 construct: expressed in transfected cells
Method: • Hanks buffered saline solution (HBSS, Invitrogen, Belgium), supplemented with 10 mM HEPES (Invitrogen, Belgium), CaCl2 to a final concentration of 5 mM, 0.1% Bovine serum albumin (Sigma-Aldrich NV, Belgium). b) Calcium-Sensitive Dye—Fluo-4AM • Fluo-4AM (Molecular Probes, USA) was dissolved in DMSO containing 10% Pluronic acid (Molecular Probes, USA) to give a stock solution which was diluted in assay buffer supplemented with 5 mM probenicid (Sigma, Aldrich NV, Belgium) to give a final concentration of 2 μM. c) 384-Well Plates • Black 384 well plate black/clear plates, PDL pre-coated (Corning, Incorporated, USA) d) Calcium Flux Measurement
A Functional drug screening system (FDSS, Hamamatsu) was used to measure intracellular free-calcium flux signals.
Monolayers of hα7-wt nAChR-expressing cells were grown in multi-well plates, in particular black-sided, transparent bottomed 384 well plates coated with poly-D-lysine for 24 hours prior to loading with a fluorescent calcium indicator, in a particular embodiment loading with fluo-4AM for up to 120 minutes.
PAM activity was detected in real time by applying the compounds to be tested to the loaded cells along with a α7 nicotinic receptor agonist during constant monitoring of cellular fluorescence in a FDSS. Compounds giving peak fluorescent responses greater than the response due to agonist alone, were considered to be α7 nAChR PAM's. In a particular embodiment, the α7 nicotinic receptor agonist was choline, a more particular embodiment choline applied at a sub-maximal concentration of 100 μM. In a further setting of the present invention the compounds to be tested were applied prior to the α7 nicotinic receptor agonist, in a particular embodiment up to 10 minutes prior to the agonist.
A control response to choline was calculated on each plate from the difference in peak in fluorescence in wells receiving either choline or assay buffer alone. Compounds of the present invention were tested at a concentration range from 0.01 μM to 30 μM. Compounds were considered to have an interesting activity when they potentiated the choline signal at least with 500% when tested at a concentration of 30 μM (the efficacy of 100 μM choline was defined as 100% in the absence of a PAM). The compounds also have a potentiating effect on the response to choline when measured by whole-cell patch clamp electrophysiology in GH4C1 cells stably over-expressing the human wild-type α7 receptor.

T1 sequence (P36544 23-502): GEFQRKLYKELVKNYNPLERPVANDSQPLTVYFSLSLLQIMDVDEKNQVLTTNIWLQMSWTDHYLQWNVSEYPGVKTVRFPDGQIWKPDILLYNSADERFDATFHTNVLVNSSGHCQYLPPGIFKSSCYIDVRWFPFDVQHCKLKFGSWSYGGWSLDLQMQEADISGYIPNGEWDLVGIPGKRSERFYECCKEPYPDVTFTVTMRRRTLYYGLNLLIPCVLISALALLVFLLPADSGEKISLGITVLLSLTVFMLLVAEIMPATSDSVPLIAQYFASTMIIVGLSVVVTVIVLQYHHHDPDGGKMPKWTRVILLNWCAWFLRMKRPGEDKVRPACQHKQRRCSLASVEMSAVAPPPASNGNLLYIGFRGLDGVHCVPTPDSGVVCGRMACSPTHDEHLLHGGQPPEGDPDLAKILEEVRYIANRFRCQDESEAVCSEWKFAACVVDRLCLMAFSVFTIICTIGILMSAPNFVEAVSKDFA

Structure (SMILES)	EC50 (hα7-wt nAChR) [nM]	melting point [°C]	Emax (hα7-wt nAChR) [%]
CCNC(=O)Cn1nc(Nc2ccc3c(c2)OC(F)(F)O3)nc1-c1ccnc(C)c1 [Compound 46]	2000	244.9	–
CC(=O)CCn1nc(Nc2cccc(C(F)(F)F)c2)nc1-c1ccnc(C)c1 [Compound 47]	> 10000	138.1	–
Cc1cc(-c2nc(Nc3cccc(C(F)(F)F)c3)nn2CCC(=O)N(C)C)ccn1 [Compound 48]	631	169.1	–
CC(=O)c1ccc(-c2nc(Nc3ccc(F)c(F)c3)nn2C[C@H](C)O)cn1 [Compound 50]	6310	147.8	650
C/C(N)=N/OC(=O)CCn1nc(Nc2ccc(F)c(C(F)(F)F)c2)nc1-c1ccncc1 [Compound 53]	5010	190.2	–
Cc1nc(CCn2nc(Nc3ccc(F)c(C(F)(F)F)c3)nc2-c2ccnc(Cl)c2)no1 [Compound 56]	1260	117.4	717
CN(C)C(=O)CCn1nc(Nc2ccc(F)c(C(F)(F)F)c2)nc1-c1ccnc(CNC(=O)C(F)(F)F)c1 [Compound 59]	158	182.4	669
O=C(Cn1nc(Nc2ccc(F)c(C(F)(F)F)c2)nc1-c1ccnc(CO)c1)NC1CC1 [Compound 61]	5010	242.2	–
COCc1cc(-c2nc(Nc3ccc(F)c(C(F)(F)F)c3)nn2CC(=O)NC2CC2)ccn1 [Compound 62]	316	204.6	–
CN(C)C(=O)CCCn1nc(Nc2ccc(F)c(C(F)(F)F)c2)nc1-c1ccnc(Cl)c1 [Compound 68]	794	168.8	–
CCc1cc(-c2nc(Nc3cccc(C(F)(F)F)c3)nn2CCO)ccn1 [Compound 70]	2000	167.9	–
CC(C)c1ccc(-c2nc(Nc3cccc(C(F)(F)F)c3)nn2CCO)cn1 [Compound 71]	794	177.1	601
COc1ccc(-c2nc(Nc3cccc(C(F)(F)F)c3)nn2CCO)cn1 [Compound 72]	1260	160	–
COc1cc(-c2nc(Nc3cccc(C(F)(F)F)c3)nn2CCO)ccn1 [Compound 73]	3160	165.4	–
CC(C)Oc1cc(-c2nc(Nc3cccc(C(F)(F)F)c3)nn2CCO)ccn1 [Compound 74]	1260	159	–
CN(C)c1cc(-c2nc(Nc3cccc(C(F)(F)F)c3)nn2CCO)ccn1 [Compound 75]	2510	164.2	–
OCCn1nc(Nc2cccc(C(F)(F)F)c2)nc1-c1ccc(C2CC2)nc1 [Compound 76]	501	152.9	–

More lines, now with the values ahead:

EC50 (hα7-wt nAChR) [nM]	melting point [°C]	Emax (hα7-wt nAChR) [%]	Structure (SMILES)
2510	145.6	–	OCCn1nc(Nc2cccc(C(F)(F)F)c2)nc1-c1ccc(N2CCOCC2)nc1 [Compound 77]
200	166.3 to 168.3	–	COCCNC(=O)Cn1nc(Nc2cccc(C(F)(F)F)c2)nc1-c1ccc2c(c1)OCCO2 [Compound 82]
200	187.2	–	COc1cc(-c2nc(Nc3cccc(C(F)(F)F)c3)nn2CCC(=O)N(C)C)cc(C)n1 [Compound 83]
316	177.7	–	COc1cc(-c2nc(Nc3cccc(C(F)(F)F)c3)nn2CCC(=O)N(C)C)cc(Cl)n1 [Compound 84]
316	182.2	–	O=C(CCn1nc(Nc2cccc(C(F)(F)F)c2)nc1-c1ccncc1)N1CCCC1 [Compound 85]
2510	171.1	–	OCCn1nc(Nc2ccc(F)c(C(F)(F)F)c2)nc1-c1ccncc1 [Compound 87]
631	183	–	CCc1cc(-c2nc(Nc3ccc(F)c(C(F)(F)F)c3)nn2CCO)ccn1 [Compound 88]
5010	149.4	–	OCCn1nc(Nc2ccc(F)c(C(F)(F)F)c2)nc1-c1ccncc1F [Compound 89]
